{"source": "patent US6673555B1", "about": "“Methods of using SCAP antagonists” (SmithKline Beecham Corporation, priority 1999, dated 2004)", "key": {"human SREBP-2": {"tested_on": "human SREBP-2", "test": "Western blot analysis of the proteolytic maturation of SREBP-2 in HepG2 cells", "type": "cell-based", "conditions": "1 μM, 18 hours", "procedure": "The involvement of the SREBP pathway was confirmed by Western Blot immunodetection of precursor and mature forms of human SREBP-2.\nHepG2 cells were seeded in 150 cm^2 flasks at 8×10^6 cells and transfected with 10 μg of pTK-HSV-BP2 using Fugene 6 and incubated for 20 h before addition of 1 μM of example 1 or vehicle. After 18 h of incubation, membrane fraction and nuclear extracts were obtained using the method described by Hua, X. et al., J. Biol. Chem. 270: 29422-27 (1995).\nProteins (20 μg/load) were separated on 8% SDS-PAGE and blotted onto BA 83 nitrocellulose membrane (Schleisher & Schuell). The HSV tag present in the amino terminus of SREBP-2 was detected using 0.2 μg/ml of anti-HSV antibodies after saturation with 10% non-fat milk.\nHepG2 cells were transfected (FIG. 4, lane b-e) or not transfected (FIG. 4, lane a) with pTK-HSV-BP2 vector encoding human SREBP-2 preceded by HSV tag. Cells were treated for 18 hours with Example 1 (1 μM) (lane c, d) or vehicle (lane a, b, e) and nuclear extract (lane d, e) and membrane (lane a-c) were isolated and analysed by western blotting using anti-HSV antibodies."}, "[1]": {"tested_on": "golden Syrian hamster previously fed with a cholesterol rich diet", "test": "Lipoprotein and lipid in sera of cholesterol-fed hamsters (ultracentrifugation, enzymatic assays, SDS-PAGE)", "type": "in vivo", "conditions": "for apoB100: VLDL and LDL fraction; for reduction of LDL-cholesterol / reduction of triglycerides: Table 1", "procedure": "(§1) The in vivo activity of SCAP antagonist was determined in the golden Syrian hamster previously fed with a cholesterol rich diet. Male Syrian golden hamsters (Janvier, France) were kept on a 12 h light-dark cycle. Animals (7 weeks age, 150 g) were fed for 2 weeks with a high cholesterol diet containing 0.2% cholesterol plus 10% coconut oil. Animals (n=5 per group) were then treated orally with vehicle, (0.5% methylcellulose, 5% Tween 80) or Example 1 at 1, 5 or 20 mg/kg in the vehicle, once a day for 3 days.\n4h after the last treatment, animals were anesthetized, blood was collected and serum was prepared by centrifugation. Total cholesterol was determined using a enzymatic assay kit (Biomerieux, France). Lipoproteins were separated by ultracentrifugation using a single KBr concentration (density 1.063). Cholesterol and triglycerides associated with the upper phase (corresponding to VLDL +LDL lipoproteins) and cholesterol associated with the lower phase (corresponding to the HDL fraction) were determined using the enzymatic assays kits. Apolipoprotein B100 associated with VLDL and LDL lipoprotein fraction were analysed by SDS-PAGE and Coomassie blue staining. Lipoproteins were also separated by high-performance gel filtration chromatography with on-line colorimetric determination of cholesterol. Lipoprotein separation was performed on a single superose 6HR column (Pharmacia) with an elution buffer consisting of 10 mM tris, 1 mM EDTA and 150 mM NaCl adjusted at pH 7.4. Cholesterol was measured on line using the RTU enzymatic assay (Biomerieux). The column was calibrated using human lipoproteins and the various peaks in cholesterol profiles are designated VLDL, LDL and HDL for simplicity.\nCholesterol-fed animals were treated for 3 days with Example 1 at 1 and 20 mg/kg. […] In another experiment, lipoproteins were separated by gel filtration and cholesterol content was quantified on-line. As shown in FIG. 7 Example 1 at […] strongly reduces atherogenic particles: 79% reduction of VLDL cholesterol and 60% reduction of LDL-cholesterol."}, "HepG2 cells": {"tested_on": "HepG2 cells", "test": "Uptake of Dil-LDL by HepG2 cells", "type": "cell-based", "conditions": "0.5 μM, 24 hours, Dil-LDL 6 μg/ml for last 4 hours, FIG. 5", "procedure": "To determine if activation of LDL-receptor promoter also translated into an increase in functional LDL receptors, an LDL uptake assay was set up. HepG2 cells seeded at 8 10^4 cells per 8 well Biocoat slides (Beckton Dickinson) were treated with SCAP antagonist or 25OH-cholesterol for 20h and then incubated with 6 μg/ml of fluorescent Dil-LDL for 4 hours. The amount of fluorescent dye that accumulated in the lysosomes was quantified by fluorescence microscopy using Axioplan-2 Zeiss microscope equipped with DXC950P video camera (Sony) and red fluorescence filters.\nHepG2 cells were treated for 24 hours in the presence of 0.5 μM Example 1 or 10 μM 25OH-cholesterol. Dil-LDL (6 μg/ml) were added 4 hours before the end of the incubation. Cells were washed and observed by fluorescence microscopy using rhodamine filters and video camera with fixed settings."}, "[2]": {"tested_on": "hamster LDL-receptor mRNA", "test": "LDL-receptor mRNA by real-time PCR in livers of cholesterol-fed hamsters", "type": "in vivo, Syrian golden hamster", "conditions": "5 mg/kg oral once a day for 3 days, versus vehicle, FIG. 6", "procedure": "as §1\n4 hours after the last administration, animals were sacrificed and livers were immediately dropped into liquid nitrogen. Total RNA was extracted using RNAqous kit (Ambion) according to manufacturer instruction. […] The expression of the hamster LDL-receptor was determined using the following primers: SEQ ID NO: 12 […] and SEQ ID NO: 13 […]. […] Each sample was quantified in duplicates and the cycle threshold (Ct) were calculated. For each animal the difference between Ct values for the LDL-receptor and Ribosomal RNA were calculated. The quantity of LDL-receptor mRNA relative to Ribosomal RNA reference was calculated as 2^−ΔΔCt and expressed in arbitrary units.\nCholesterol-fed hamsters were treated with Example 1 (5 mg/kg) or vehicle for 3 days. LDL-receptor mRNA in the liver was quantified by real-time PCR using Ribosomal 18S RNA as internal reference."}, "[3]": {"conditions": "1 mg/kg oral once a day for 3 days"}, "[4]": {"conditions": "1 mg/kg oral once a day for 3 days, serum 4h after last treatment"}, "[5]": {"conditions": "20 mg/kg oral once a day for 3 days"}, "[6]": {"conditions": "20 mg/kg oral once a day for 3 days, serum 4h after last treatment"}}, "data": [{"smiles": "CCOc1cc(CC)ccc1C1CCN(CCCCNC(=O)c2ccc(NC(=O)c3ccc(Cl)cc3)cc2)CC1", "note": "[Example 1, 4-(4-Chloro-benzoylamino)-N-{4-[4-(2-ethoxy-4-ethyl-phenyl)-piperidin-1-yl]-butyl}-benzamide]", "values": [{"measurement": "amount of SREBP-2 precursor form in the membrane", "setting": "human SREBP-2; HepG2 transfected with pTK-HSV-BP2, FIG. 4", "value": "reduces the amount of SREBP-2 precursor form present in the membrane"}, {"measurement": "amount of mature SREBP-2 in the nucleus", "setting": "human SREBP-2; HepG2 transfected with pTK-HSV-BP2, nuclear extract, FIG. 4", "value": "strongly increases the amount of mature SREBP-2 in the nucleus"}, {"measurement": "melting point", "value": 250, "unit": "°C"}, {"measurement": "CHOLESTEROL HDL chol, % of control", "setting": "[1]; [3]", "value": 123, "unit": "%"}, {"measurement": "CHOLESTEROL LCLchol, % of control", "setting": "[1]; [3]", "value": 50, "unit": "%"}, {"measurement": "CHOLESTEROL TOTAL, % of control", "setting": "[1]; [3]", "value": 79, "unit": "%"}, {"measurement": "Triglycerides TOTAL, % of control", "setting": "[1]; [3]", "value": "37% (p < 0.001)"}, {"measurement": "apoB100, % of control", "setting": "[1]; [3]", "value": "62% (p < 0.005)"}, {"measurement": "apoB100", "setting": "[1]; [3]", "value": "3.1 ± 0.4", "unit": "S.U."}, {"measurement": "CHOLESTEROL HDL chol", "setting": "[1]; [4]", "value": "1.5 ± 0.1", "unit": "g/L"}, {"measurement": "CHOLESTEROL LCLchol", "setting": "[1]; [4]", "value": "0.95 ± 0.2", "unit": "g/L"}, {"measurement": "CHOLESTEROL TOTAL", "setting": "[1]; [4]", "value": "3.1 ± 0.3", "unit": "g/L"}, {"measurement": "Triglycerides TOTAL", "setting": "[1]; [4]", "value": "1.3 ± 0.2", "unit": "g/L"}, {"measurement": "reduction of LDL-cholesterol", "setting": "[1]; 1 mg/kg, 3 days", "value": 50, "unit": "%"}, {"measurement": "reduction of triglycerides", "setting": "[1]; 1 mg/kg, 3 days", "value": 63, "unit": "%"}, {"measurement": "CHOLESTEROL HDL chol, % of control", "setting": "[1]; [5]", "value": 113, "unit": "% NS"}, {"measurement": "CHOLESTEROL LCLchol, % of control", "setting": "[1]; [5]", "value": 17, "unit": "%"}, {"measurement": "CHOLESTEROL TOTAL, % of control", "setting": "[1]; [5]", "value": 55, "unit": "%"}, {"measurement": "Triglycerides TOTAL, % of control", "setting": "[1]; [5]", "value": "24% (p < 0.001)"}, {"measurement": "apoB100, % of control", "setting": "[1]; [5]", "value": "25% (p < 0.005)"}, {"measurement": "apoB100", "setting": "[1]; [5]", "value": "1.2 ± 0.2", "unit": "S.U."}, {"measurement": "CHOLESTEROL LCLchol", "setting": "[1]; [6]", "value": "0.3 ± 0.1", "unit": "g/L"}, {"measurement": "CHOLESTEROL TOTAL", "setting": "[1]; [6]", "value": "2.1 ± 0.3", "unit": "g/L"}, {"measurement": "Triglycerides TOTAL", "setting": "[1]; [6]", "value": "0.8 ± 0.02", "unit": "g/L"}, {"measurement": "reduction of LDL-cholesterol", "setting": "[1]; 20 mg/kg, 3 days", "value": 83, "unit": "%"}, {"measurement": "reduction of triglycerides", "setting": "[1]; 20 mg/kg, 3 days", "value": 76, "unit": "%"}, {"measurement": "effect on Apolipoprotein B100", "setting": "[1]; 1 and 20 mg/kg, 3 days", "value": "reduced to the same extent"}, {"measurement": "effect on HDL-cholesterol", "setting": "[1]; 1 and 20 mg/kg, 3 days", "value": "unaffected"}, {"measurement": "LDL uptake (Dil-LDL fluorescence)", "setting": "HepG2 cells", "value": "markedly increased the LDL uptake"}, {"measurement": "LDL-receptor mRNA in the liver", "setting": "[2]", "value": "increased mRNA for LDL-receptor"}]}]}
